# Measurements from patent US10022354B2, “Pyrrolidine amide compounds as histone demethylase inhibitors” (GENENTECH, INC., priority 2014, dated 2018).
# Biological target: full length KDM5A enzyme (Homo sapiens (Human), UniProt P29375)
# Assay: KDM5 Enzyme Assay (KDM5A HTRF)
# Type: biochemical
# Conditions: 2 nM full length KDM5A, 100 nM H3K4Me3 peptide, 1 uM 2-OG, 30 min room temperature
# Procedure: Full length KDM5A enzyme was expressed and purified inhouse. Biotin-H3K4me3 peptide was purchased from New England Biolabs. HTRF reagents (containing Eu-labeled H3K4me1-2 antibody, and streptavidin-XL665) were purchased from Cis-Bio International. Plates were read on an Envision multi-label plate reader (Perkin Elmer).
# The HTRF assay mixture contained 2 nM full length KDM5A enzyme, 100 nM H3K4Me3 peptide substrate, 1 uM 2-OG, 100 uM Fe^2+, 500 uM ascorbate. 50 mM HEPES pH 7.0 buffer, 0.01% Triton-X 100, 2 mM DTT, 0.25% DMSO at a final volume of 10 uL.
# The plates were incubated at room temperature for 60 minutes and then read in the Envision plate reader.
# full length KDM5A enzyme, sequence (P29375 whole entry): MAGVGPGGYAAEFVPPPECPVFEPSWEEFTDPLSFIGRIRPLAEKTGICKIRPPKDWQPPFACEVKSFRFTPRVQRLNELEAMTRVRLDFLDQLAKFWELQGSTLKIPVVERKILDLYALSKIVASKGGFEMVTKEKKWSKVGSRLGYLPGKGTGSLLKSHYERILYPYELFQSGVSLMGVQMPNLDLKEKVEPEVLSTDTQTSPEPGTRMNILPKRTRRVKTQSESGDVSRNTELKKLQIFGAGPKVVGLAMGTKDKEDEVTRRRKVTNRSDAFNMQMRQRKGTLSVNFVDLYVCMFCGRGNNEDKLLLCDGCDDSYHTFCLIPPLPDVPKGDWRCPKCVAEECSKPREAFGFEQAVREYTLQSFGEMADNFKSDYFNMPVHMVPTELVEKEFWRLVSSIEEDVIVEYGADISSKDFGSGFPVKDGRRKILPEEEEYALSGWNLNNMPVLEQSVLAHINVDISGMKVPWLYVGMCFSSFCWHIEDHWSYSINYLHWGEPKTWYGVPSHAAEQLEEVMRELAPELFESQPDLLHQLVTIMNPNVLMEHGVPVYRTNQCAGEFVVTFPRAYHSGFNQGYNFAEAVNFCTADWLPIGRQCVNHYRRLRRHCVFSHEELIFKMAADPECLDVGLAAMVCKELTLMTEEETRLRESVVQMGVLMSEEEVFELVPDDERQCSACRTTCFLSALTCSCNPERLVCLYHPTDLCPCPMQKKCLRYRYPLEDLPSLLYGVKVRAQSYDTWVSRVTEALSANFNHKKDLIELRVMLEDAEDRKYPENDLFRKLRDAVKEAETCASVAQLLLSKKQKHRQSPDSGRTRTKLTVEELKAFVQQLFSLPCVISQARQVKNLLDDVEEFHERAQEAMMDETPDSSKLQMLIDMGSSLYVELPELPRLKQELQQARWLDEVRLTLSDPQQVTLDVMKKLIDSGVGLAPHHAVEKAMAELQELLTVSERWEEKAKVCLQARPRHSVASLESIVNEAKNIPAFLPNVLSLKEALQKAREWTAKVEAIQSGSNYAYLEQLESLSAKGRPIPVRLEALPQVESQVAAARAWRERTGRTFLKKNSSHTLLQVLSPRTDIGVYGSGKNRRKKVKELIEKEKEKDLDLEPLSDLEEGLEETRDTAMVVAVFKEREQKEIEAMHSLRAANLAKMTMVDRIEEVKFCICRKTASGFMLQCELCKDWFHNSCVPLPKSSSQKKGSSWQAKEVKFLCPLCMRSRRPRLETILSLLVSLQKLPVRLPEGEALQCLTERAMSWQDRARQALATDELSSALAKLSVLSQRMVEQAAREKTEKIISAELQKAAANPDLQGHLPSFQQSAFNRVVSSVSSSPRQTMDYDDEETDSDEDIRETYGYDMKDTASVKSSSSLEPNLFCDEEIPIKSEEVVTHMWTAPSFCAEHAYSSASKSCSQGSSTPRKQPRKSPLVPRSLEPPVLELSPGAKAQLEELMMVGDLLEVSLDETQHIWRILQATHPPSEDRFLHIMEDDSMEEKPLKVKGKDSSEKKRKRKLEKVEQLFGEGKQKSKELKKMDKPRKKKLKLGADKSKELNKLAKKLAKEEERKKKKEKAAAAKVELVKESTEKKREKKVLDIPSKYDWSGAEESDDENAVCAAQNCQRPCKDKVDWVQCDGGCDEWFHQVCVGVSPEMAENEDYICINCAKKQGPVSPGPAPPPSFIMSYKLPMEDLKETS
row,Structure (SMILES),IC50
1,COc1cccc(OC)c1C(=O)NC1CCN(C(=O)c2cc(C(C)C)n[nH]2)C1 (stereo not shown) [Example 139],3 nM
2,CC(C)c1cc(C(=O)N2CCC(NC(=O)C3(c4ccccn4)CC3)C2)n[nH]1 (stereo not shown) [Example 140],0.21 nM
3,CC(C)c1cc(C(=O)N2CCC(NC(=O)c3ccccc3OC(F)(F)F)C2)[nH]n1 (stereo not shown) [Example 142],1.5 nM
4,CC(C)c1cc(C(=O)N2CCC(c3cc(-c4cnn(C)c4)cc(N)n3)C2)[nH]n1 (stereo not shown) [Example 144],0.13 nM
5,CC(C)c1cc(C(=O)N2CCC(NC(=O)C3CCCCC3)C2)[nH]n1 (stereo not shown) [Example 145],1.9 nM
6,CC(C)c1cc(C(=O)N2CCC(NC(=O)c3ccccn3)C2)[nH]n1 (stereo not shown) [Example 146],0.18 nM
7,CC(C)c1cc(C(=O)N2CCC(N(C)C(=O)c3ccccc3)C2)[nH]n1 (stereo not shown) [Example 147],8.9 nM
8,CCN(C(=O)c1ccccc1)C1CCN(C(=O)c2cc(C(C)C)n[nH]2)C1 (stereo not shown) [Example 148],12 nM
9,CC(C)c1cc(C(=O)N2CCC(NC(=O)c3ccncc3)C2)[nH]n1 (stereo not shown) [Example 149],2.5 nM
10,CC(C)c1cc(C(=O)N2CCC(NC(=O)c3ccccc3Cl)C2)[nH]n1 (stereo not shown) [Example 150],0.098 nM
11,CC(C)c1cc(C(=O)N2CCC(NC(=O)C3CCC3)C2)[nH]n1 (stereo not shown) [Example 152],0.083 nM
12,CC(C)c1cc(C(=O)N2CCC(NC(=O)C3CCOCC3)C2)[nH]n1 (stereo not shown) [Example 154],0.4 nM
13,CC(C)c1cc(C(=O)N2CCC(NC(=O)c3ccccc3F)C2)[nH]n1 (stereo not shown) [Example 155],0.075 nM
14,CC(C)c1cc(C(=O)N2CCC(NC(=O)c3cccc(F)c3)C2)[nH]n1 (stereo not shown) [Example 156],0.074 nM
15,CC(C)c1cc(C(=O)N2CCC(NC(=O)c3ccc(F)cc3)C2)[nH]n1 (stereo not shown) [Example 157],0.2 nM
16,COc1ccccc1C(=O)NC1CCN(C(=O)c2cc(C(C)C)n[nH]2)C1 (stereo not shown) [Example 158],0.073 nM
17,COc1cccc(C(=O)NC2CCN(C(=O)c3cc(C(C)C)n[nH]3)C2)c1 (stereo not shown) [Example 159],0.12 nM
18,COc1ccc(C(=O)NC2CCN(C(=O)c3cc(C(C)C)n[nH]3)C2)cc1 (stereo not shown) [Example 160],0.27 nM
19,CC(C)c1cc(C(=O)N2CCC(NC(=O)C3CCCO3)C2)[nH]n1 (stereo not shown) [Example 161],0.38 nM
20,CC(C)c1cc(C(=O)N2CCC(NC(=O)c3ccn(C(C)C)n3)C2)[nH]n1 (stereo not shown) [Example 162],5.1 nM
21,CC(C)c1cc(C(=O)N2CCC(NC(=O)C3CC3c3ccccc3)C2)[nH]n1 (stereo not shown) [Example 163],0.58 nM

row,Structure (SMILES),IC50
1,CC(C)c1cc(C(=O)N2CCC(NC(=O)c3ccccc3Oc3ccccc3)C2)[nH]n1 (stereo not shown) [Example 164],0.7 nM
2,CCn1ccc(C(=O)NC2CCN(C(=O)c3cc(C(C)C)n[nH]3)C2)n1 (stereo not shown) [Example 165],0.11 nM
3,CC(C)c1cc(C(=O)N2CCC(NC(=O)C3CCCOC3)C2)[nH]n1 (stereo not shown) [Example 166],0.52 nM
4,CC(C)c1cc(C(=O)N2CCC(NC(=O)C3CC(N)C3)C2)[nH]n1 (stereo not shown) [Example 167],17 nM
5,CC(C)c1cc(C(=O)N2CCC(NC(=O)C(C)(C)C)C2)[nH]n1 (stereo not shown) [Example 168],0.2 nM
6,CC(C)c1cc(C(=O)N2CCC(NC(=O)COc3ccccc3)C2)[nH]n1 (stereo not shown) [Example 169],3.1 nM
7,CC(O)C(=O)NC1CCN(C(=O)c2cc(C(C)C)n[nH]2)C1 (stereo not shown) [Example 170],1.6 nM
8,CC(C)c1cc(C(=O)N2CCC(NC(=O)C3(C(F)(F)F)CC3)C2)[nH]n1 (stereo not shown) [Example 172],0.92 nM
9,CC(C)c1cc(C(=O)N2CCC(NC(=O)C(C)(C)C(F)(F)F)C2)[nH]n1 (stereo not shown) [Example 173],1.6 nM
10,COC1(C(=O)NC2CCN(C(=O)c3cc(C(C)C)n[nH]3)C2)CC1 (stereo not shown) [Example 174],0.21 nM
11,CC(C)c1cc(C(=O)N2CCC(NC(=O)CC3CC3)C2)[nH]n1 (stereo not shown) [Example 175],0.4 nM
12,COCCC(=O)NC1CCN(C(=O)c2cc(C(C)C)n[nH]2)C1 (stereo not shown) [Example 176],1.1 nM
13,CC(C)c1cc(C(=O)N2CCC(NC(=O)c3ccc4[nH]ccc4n3)C2)[nH]n1 (stereo not shown) [Example 177],0.078 nM
14,CC(C)c1cc(C(=O)N2CCC(NC(=O)c3ccc4c(ccn4C)c3)C2)[nH]n1 (stereo not shown) [Example 178],0.08 nM
15,CC(C)c1cc(C(=O)N2CCC(NC(=O)C3COC3)C2)[nH]n1 (stereo not shown) [Example 179],0.24 nM
16,CC(C)c1cc(C(=O)N2CCC(NC(=O)C3(C)COC3)C2)[nH]n1 (stereo not shown) [Example 181],0.3 nM
17,CC(C)c1cc(C(=O)N2CCC(NC(=O)C3(c4cccnc4)CC3)C2)n[nH]1 (stereo not shown) [Example 184],1.2 nM
18,CC(C)c1cc(C(=O)N2CCC(NC(=O)c3ccccc3OCCO)C2)[nH]n1 (stereo not shown) [Example 185],0.11 nM
19,CC(C)c1cc(C(=O)N2CCC(C(=O)Nc3ccccc3)C2)[nH]n1 (stereo not shown) [Example 187],6.5 nM
20,CCNC(=O)C1CCN(C(=O)c2cc(C(C)C)n[nH]2)C1 (stereo not shown) [Example 188],22 nM
21,CCC(C)c1cc(C(=O)N2CC[C@@H](NC(=O)[C@H]3C[C@H]3F)C2)[nH]n1 (stereo partly shown) [Example 189],0.038 nM

row,Structure (SMILES),IC50
1,CCC(C)c1cc(C(=O)N2CC[C@@H](NC(=O)[C@@H]3C[C@@H]3F)C2)[nH]n1 (stereo partly shown) [Example 190],0.037 nM
2,CC(C)c1cc(C(=O)N2CCC(NC(=O)C3(c4ccncc4)CC3)C2)[nH]n1 (stereo not shown) [Example 191],2 nM
3,COCC1(C(=O)NC2CCN(C(=O)c3cc(C(C)C)n[nH]3)C2)CC1 (stereo not shown) [Example 192],0.58 nM
4,CC(C)c1cc(C(=O)N2CCC(NC(=O)C3(C#N)CC3)C2)[nH]n1 (stereo not shown) [Example 193],0.41 nM
5,CC(C)c1cc(C(=O)N2CCC(NC(=O)CC(F)(F)F)C2)[nH]n1 (stereo not shown) [Example 194],0.46 nM
6,CC(C)c1cc(C(=O)N2CCC(NC(=O)C3(Oc4ccccc4)CC3)C2)[nH]n1 (stereo not shown) [Example 195],3.5 nM
7,CC(C)c1cc(C(=O)N2CCC(NC(=O)c3ccn(-c4cnn(C)c4)n3)C2)[nH]n1 (stereo not shown) [Example 196],0.11 nM
8,CC(C)c1cc(C(=O)N2CCC(NC(=O)c3ncccn3)C2)n[nH]1 (stereo not shown) [Example 197],0.31 nM
9,COc1cccc(F)c1C(=O)NC1CCN(C(=O)c2cc(C(C)C)[nH]n2)C1 (stereo not shown) [Example 198],1.2 nM
10,CC(C)c1cc(C(=O)N2CCC(NC(=O)c3cnccn3)C2)n[nH]1 (stereo not shown) [Example 199],1.1 nM
11,CC(C)c1cc(C(=O)N2CCC(NC(=O)c3ncccc3F)C2)n[nH]1 (stereo not shown) [Example 200],0.25 nM
12,CC(C)Oc1ccccc1C(=O)NC1CCN(C(=O)c2cc(C(C)C)n[nH]2)C1 (stereo not shown) [Example 201],0.092 nM
13,CC(C)c1cc(C(=O)N2CCC(N3CCc4ccccc4C3=O)C2)[nH]n1 (stereo not shown) [Example 202],1.5 nM
14,O=C(NC1CCN(C(=O)c2c[nH]cn2)C1)C1CC1 (stereo not shown) [Example 203],6.2 nM
15,Cn1cnc(C(=O)N2CCC(NC(=O)C3CC3)C2)c1 (stereo not shown) [Example 204],2.2 nM
16,O=C(NC1CCN(C(=O)c2cc(Br)n[nH]2)C1)C1CC1 (stereo not shown) [Example 205],14 nM
17,CC(C)Cc1cc(C(=O)N2CCC(NC(=O)C3CC3)C2)[nH]n1 (stereo not shown) [Example 206],0.3 nM
18,O=C(NC1CCN(C(=O)c2cc(C3CCCCC3)n[nH]2)C1)C1CC1 (stereo not shown) [Example 207],0.42 nM
19,O=C(NC1CCN(C(=O)c2cc(C3CC3)n[nH]2)C1)C1CC1 (stereo not shown) [Example 208],0.19 nM
20,Nc1cc(C(=O)N2CCC(NC(=O)C3CC3)C2)[nH]n1 (stereo not shown) [Example 209],17 nM
21,COC(C)c1cc(C(=O)N2CCC(NC(=O)C3CC3)C2)[nH]n1 (stereo not shown) [Example 211],2.6 nM

row,Structure (SMILES),IC50
1,CCCCc1cc(C(=O)N2CCC(NC(=O)C3CC3)C2)[nH]n1 (stereo not shown) [Example 213],0.81 nM
2,O=C(NC1CCN(C(=O)c2cc(CCc3ccccc3)n[nH]2)C1)C1CC1 (stereo not shown) [Example 214],2.7 nM
3,O=C(NC1CCN(C(=O)c2cc(C3CCCC3)n[nH]2)C1)C1CC1 (stereo not shown) [Example 215],0.23 nM
4,CC(=O)NC(C)c1cc(C(=O)N2CCC(NC(=O)C3CC3)C2)n[nH]1 (stereo not shown) [Example 216],6.6 nM
5,CC(NC(=O)CO)c1cc(C(=O)N2CCC(NC(=O)C3CC3)C2)n[nH]1 (stereo not shown) [Example 217],3.2 nM
6,CC(C)c1cc(C(=O)N2CC[C@@H](NC(=O)C3CCO3)C2)[nH]n1 (stereo partly shown) [Example 223],0.36 nM
7,CC(C)c1cc(C(=O)N2CC[C@@H](NC(=O)C3(C#N)CC3)C2)[nH]n1 [Example 226],0.23 nM
8,CC(C)c1cc(C(=O)N2CC[C@@H](NC(=O)CC#N)C2)[nH]n1 [Example 227],0.24 nM
9,CC(C)c1cc(C(=O)N2CC[C@H](NC(=O)[C@@H]3C[C@@H]3F)C2)[nH]n1 [Example 229],0.11 nM
10,CC(C)c1cc(C(=O)N2CC[C@H](NC(=O)[C@H]3C[C@H]3F)C2)[nH]n1 [Example 230],0.14 nM
11,CC(C)c1cc(C(=O)N2CC[C@@H](NC(=O)[C@H]3C[C@@H]3F)C2)[nH]n1 [Example 231],0.33 nM
12,Cc1cc(C)n(C2CCN(C(=O)c3cc(C(C)C)n[nH]3)C2)n1 (stereo not shown) [Example 233],12 nM
13,CC(C)c1cc(C(=O)N2CCC(n3cc4c(n3)CCC4)C2)[nH]n1 (stereo not shown) [Example 235],0.34 nM
14,Cc1nn(C2CCN(C(=O)c3cc(C(C)C)n[nH]3)C2)cc1-c1ccccc1 (stereo not shown) [Example 236],0.32 nM
15,Cc1nn(C2CCN(C(=O)c3cc(C(C)C)n[nH]3)C2)cc1Br (stereo not shown) [Example 237],0.36 nM
16,CC(C)c1cc(C(=O)N2CCC(n3cc(Br)c(C(F)F)n3)C2)[nH]n1 (stereo not shown) [Example 239],0.35 nM
17,CC(C)c1cc(C(=O)N2CCC(n3cc(Br)c(C#N)n3)C2)[nH]n1 (stereo not shown) [Example 240],2.1 nM
18,CC(C)c1cc(C(=O)N2CC[C@@H](n3cc4ccccc4n3)C2)[nH]n1 [Example 242],0.35 nM
19,CC(C)c1cc(C(=O)N2CC[C@@H](n3ncc4ccccc43)C2)[nH]n1 [Example 243],0.92 nM
